Test results published in US9428504B2, “7-hydroxy-spiropipiperidine indolinyl antagonists of P2Y1 receptor” (BRISTOL-MYERS SQUIBB COMPANY, priority 2012, dated 2016).

Tested on: human platelet rich plasma (PRP)
Test: ADP induced platelet aggregation assay
Conditions: Homo sapiens, Platelet, read-out: PA IC50 (μM) @ 10 μM ADP, platelet aggregation induced by 10 μM ADP, human PRP

For CC(C)(C)CN1CCC2(CC1)CN(c1ccc(F)cc1NC(=O)Nc1nc3ccc(F)cc3s1)c1c(O)ccc(Cl)c12 [Example 68, 1-(2-(4-Chloro-7-hydroxy-1′-neopentylspiro[indoline-3,4′-piperidine]-1-yl)-5-fluorophenyl)-3-(6-fluorobenzo[d]thiazol-2-yl)urea], which IC50 is on record?
Its IC50 is 0.7 µM.

For CC(C)(C)CN1CCC2(CC1)CN(c1ccccc1NC(=O)Nc1ccc(OC(F)(F)F)cc1)c1c(O)cc(F)cc12 [Example 76, 1-(2-(5-Fluoro-7-hydroxy-1′-neopentylspiro[indoline-3,4′-piperidine]-1-yl)phenyl)-3-(4-(trifluoromethoxy)phenyl)urea], which IC50 is on record?
Its IC50 is 0.7 µM.

How did the IC50 turn out when COc1ccc2nc(NC(=O)Nc3ccccc3N3CC4(CCN(CC(C)(C)C)CC4)c4c(C#N)ccc(O)c43)sc2c1 [Example 86, l-(2-(4-Cyano-7-hydroxy-1′-neopentylspiro[indoline-3,4′-piperidin]-1-yl)phenyl)-3-(6-methoxybenzo[d]thiazol-2-yl)urea] was run?
Its IC50 is 0.8 µM.

Which IC50 does the source give for CC(C)c1nsc(NC(=O)Nc2ccccc2N2CC3(CCN(CC(C)(C)C)CC3)c3c(C#N)ccc(O)c32)n1 [Example 88, l-(2-(4-Cyano-7-hydroxy-1′-neopentylspiro[indoline-3,4′-piperidin]-1-yl)phenyl)-3-(3-isopropyl-1,2,4-thiadiazol-5-yl)urea] here?
The IC50 was 0.9 µM.

Which IC50 does the source give for CC(C)(C)CN1CCC2(CC1)CN(c1ccccc1NC(=O)Nc1nc3ccc(Cl)cc3s1)c1c(O)cc(F)c(Cl)c12 [Example 94, 1-(2-(4-Chloro-5-fluoro-7-hydroxy-1′-neopentylspiro [indoline-3,4′-piperidine]-1-yl)phenyl)-3-(6-chlorobenzo[d]thiazol-2-yl)urea] here?
The IC50 was 0.7 µM.

For CC(C)(C)CN1CCC2(CC1)CN(c1ccccc1NC(=O)Nc1csc(Cl)n1)c1c(O)cc(F)c(Cl)c12 [Example 103, 1-(2-(4-Chloro-5-fluoro-7-hydroxy-1′-neopentylspiro [indoline-3,4′-piperidin]-1-yl)phenyl)-3-(2-chlorothiazol-4-yl)urea], which IC50 is on record?
The IC50 was 0.3 µM.

For CC(C)(C)CN1CCC2(CC1)CN(c1ccccc1NC(=O)Nc1nc3ccc(Cl)nc3s1)c1c(O)ccc(-c3nc4cc(C(F)(F)F)ccc4s3)c12 [Example 109, 1-(5-Chlorothiazolo[5,4-b]pyridin-2-yl)-3-(2-(7-hydroxy-1′-neopentyl-4-(5-(trifluoromethyl)benzo[d]thiazol-2-yl)spiro[indoline-3,4′-piperidin]-1-yl)phenyl)urea], which IC50 is on record?
The IC50 was 0.4 µM.

How did the IC50 turn out when CC(C)(C)CN1CCC2(CC1)CN(c1ccccc1NC(=O)Nc1nc3ccc(Cl)nc3s1)c1c(O)ccc(-c3nc4cc(Cl)ccc4s3)c12 [Example 110, 1-(2-(4-(5-Chlorobenzo[d]thiazol-2-yl)-7-hydroxy-1′-neopentylspiro[indoline-3,4′-piperidin]-1-yl)phenyl)-3-(5-chlorothiazolo[5,4-b]pyridin-2-yl)urea] was run?
The IC50 was 0.5 µM.

With CC(C)(C)CN1CCC2(CC1)CN(c1ccccc1NC(=O)Nc1csc(Cl)n1)c1c(O)ccc(-c3nc4cc(Cl)ccc4s3)c12 [Example 111, 1-(2-(4-(5-Chlorobenzo[d]thiazol-2-yl)-7-hydroxy-1′-neopentylspiro[indoline-3,4′-piperidine]-1-yl)phenyl)-3-(2-chlorothiazol-4-yl)urea] as the compound, how does the IC50 read?
The IC50 was 0.2 µM.

How did the IC50 turn out when CC(C)(C)CN1CCC2(CC1)CN(c1ccccc1NC(=O)Nc1csc(Cl)n1)c1c(O)ccc(-c3nc4cccc(Cl)c4s3)c12 [Example 122, 1-(2-(4-(7-Chlorobenzo[d]thiazol-2-yl)-7-hydroxy-1′-neopentylspiro[indoline-3,4′-piperidin]-1-yl)phenyl)-3-(2-chlorothiazol-4-yl)urea] was run?
Its IC50 is 0.4 µM.

How did the IC50 turn out when CC(C)(C)CN1CCC2(CC1)CN(c1ccccc1NC(=O)Nc1nc3ccc(Cl)cc3s1)c1c(O)ccc(-c3nc4cc(F)ccc4s3)c12 [Example 127, 1-(6-Chlorobenzo[d]thiazol-2-yl)-3-(2-(4-(5-fluorobenzo[d]thiazol-2-yl)-7-hydroxy-1′-neopentylspiro[indoline-3,4′-piperidin]-1-yl)phenyl)urea] was run?
The IC50 was 0.5 µM.
